Numbers after ± are expanded uncertainties.
Conditions: 298.15 K; 101.33 kPa; Liquid; Vibrating tube method

First: CO [methanol]
Second: CC(C)O [propan-2-ol]
The mass density of the first is higher: 787 ± 0.5 kg/m3 for the first, 781.4 ± 0.5 kg/m3 for the second.

Going from OCC(F)(F)F [2,2,2-trifluoroethanol] to CCCCCCC [heptane], the mass density falls from 1382.4 ± 0.6 kg/m3 to 680 ± 0.5 kg/m3.

Work on C1CCCCC1 [cyclohexane] yielded a mass density of 774 ± 0.5 kg/m3.

From the NIST ThermoML archive (doi:10.1021/je8001688)
